How the values were obtained:
Caco-2 cells = assay: Caco-2 cell permeability assay; format: in vitro ADME; conditions: apical to basal Papp, 2 μM, pH 7.4, 2.5 h
Description: (§1) Certain Example compounds and Comparative Example 1 were tested for their apical to basal (AB) and basal to apical (BA) permeability in Caco-2 cells.
(§2) Cell Culture: Caco-2 cells were grown for 10 days in 96-well plates in HBSS buffer containing 10 mM HEPES. Both the apical and basal pH was buffered at pH 7.4. The apical/basal volumes were 75 μl and 250 μl respectively. The incubation time was 2.5 h at 37° C. (without shaking) under 5% CO2 & 95% relative humidity.
(§3) Cell Seeding: Cells were seeded at a density of 18750 cells/well (membrane area=0.0804 cm^2) in a 96 well plate.
(§4) AB Assay: 75 μl of cell suspension was added at a density 2.5×10^5 cells/ml to the apical wells. 40 ml media was added to the feeder tray. The plates were placed in the incubator (37° C., 5% CO2 and controlled humidity). The Caco-2 cells were grown for 10 days with a media change on every alternate day.
(§5) BA Assay: 25 μl of cell suspension was added at a density of 7.5×10^5 cells/ml to the bottom side (keeping the plate upside down) of apical wells. The plate (upside down position) was placed in the incubator (37° C., 5% CO2 and 95% Relative humidity) for 2 h. The plate was turned right side up. 75 μl media was added to the apical wells and 40 ml media to the feeder tray.
(§6) Permeablity Assay: The apical and basal wells were washed with buffer (pH 7.4) and 250 μl buffer was added to the wells of the basal plate. 75 μl of compound solution (2 μM, dissolved in water with 1% DMSO) was transferred to the apical wells (n=2). The apical plate was placed onto the basal plate. The lid was placed on to prevent evaporation. The assembly was incubated at 37° C. for 2.5 h (without shaking) under 5% CO2 and 95% relative humidity. After incubation the apical plate was separated from the basal plate. Aliquots were taken out from the acceptor and donor wells, diluted and quantified using LC-MS/MS along with initial donor samples.
(§7) Membrane Integrity Test: Solution in the apical wells was discarded by inverting the plate and soaking onto tissue paper. 250 μl buffer (pH 7.4) was added to each well of basal plate and 75 μl of Lucifer Yellow (LY; 0.1 mg/ml) in buffer (pH 7.4) to the wells of apical plate. The apical plate was placed onto the basal plate and the lid used to prevent evaporation. The assembly was incubated at 37° C. for 1 h (without shaking) under 5% CO2 and 95% relative humidity. The apical plate was separated from the basal plate. Fluorescence (Ex: 432 nm, Em: 530 nm) of aliquots (100 ul) was measured from basal wells. Fluorescence of 100 μl buffer (pH 7.4) and 100 μl LY(0.1 mg/ml) was also measured. Wells having more than 1% fluorescence intensity with respect to 0.1 mg/ml LY were considered non-integrated membrane. Such wells, if any, were not considered for permeability calculation.
(§8) Calculation: Drug was detected and quantified by LC-MS/MS. Data generated took the form of an apparent permeability (Papp) value. Papp=[Va/(AreaxTime)]×(LC-MS Area of Acceptor sample×Sample dilution factor/LC-MS Area of Initial Donor). Va=Volume of Acceptor Well (in ml)=0.25, Vd=Volume of Donor Well (in ml)=0.075, Area=Surface area of the membrane (cm2)=0.0804, Time=Time of incubation (sec)=9000 Results: The results of the assay are shown in Table 3 below.

[1] = Caco-2 cell permeability assay; format: in vitro ADME; conditions: human, Caco-2, pH 7.4, basal to apical Papp, pH 7.4, 2.5 h
Description: as §1, §2, §3, §4, §5, §6, §7, §8

[2] = system: SU-DHL-10 cell line (human B cell lymphoma); assay: Cell cytotoxicity in SU-DHL-10 cell line (CellTiter-Glo); format: cell-based; conditions: Homo sapiens, SU-DHL10, 72 h, 72 h treatment, CTG
Description: Certain Example compounds of the invention and Comparator Compound 1 were tested in the SU-DHL-10 cell line (human B cell lymphoma). Compounds which show efficacy in this assay are expected to be useful as agents for treating or preventing hyperproliferative disorders such as cancer.
Cells were seeded in 96-well microplates and treated with compounds or cisplatin (as a positive control) at 9 increasing concentrations in technical triplicate. […] On day 1, 90 μL of various cell suspensions with the number of cells ranging from 5000-8000 cells/well were seeded into wells of a 96-well plate (Corning). The number of cells to be seeded was previously determined. • 2. All 96-wells plates with cells were placed in an incubator overnight at 37° C. with 5% CO2. • 3. On day 2, cells were observed under a microscope ensuring the cells treated with vehicle control were in good condition. • 4. A dilution series of the test compounds and cisplatin were prepared at 10× the final concentrations required. 10 μL/well of 10× compound solution was added to the corresponding plates. The final volume was 100 μL/well for all the plates. Final DMSO concentration was 0.1%. • 5. On day 5 (after 72 hours of incubation), 50 μL of CTG reagent was added to each well. • 6. Contents were mixed for 5 minutes on an orbital shaker to facilitate cell lysis. • 7. The plate was allowed to incubate at room temperature for 10 minutes to stabilize luminescent signals.
Luminescence was recorded using an EnVision Multi Label Reader. Data analysis was performed using GraphPad Prism 8.0.
To calculate IC50, a concentration-response curve was generated using a nonlinear regression model with a sigmoidal concentration response. The formula for calculating the % of viable cells was shown below, and the IC50s are automatically generated by GraphPad Prism 8.0.
(LumTest article=luminescence in test article treated well; LumNone treated=luminescence in vehicle treated well; LumMedium control=luminescence in a well containing only medium and no cells; LumNone treated-LumMedium control was set as 100%)

LNCaP tumour cells = assay: LNCaP prostate cancer xenograft model; format: in vivo, NOD SCID mice; conditions: for Day 28 tumour volume (mm^3, mean ± SEM) / Tumour growth inhibition (TGI, %): IV, Q7D (×3); for Tumour growth inhibition (TGI, %): day 28
From the text: A total of 84 male NOD SCID mice aged 5-8 weeks and weighing 25-30 g were used for the study.

VcaP tumour cells = assay: VCaP prostate cancer xenograft model; format: in vivo, CB17/SCID mice
From the text: All mice received two doses of test agent, on Study Day 1 and Study Day 8. The study was terminated on Study Day 30.

JIMT-1 tumour cells = assay: JIMT-1 breast cancer xenograft model; format: in vivo, NOD/SCID mice
Description: 80 mice were assigned to 8 treatment groups when tumour volumes averaged ˜160.66 mm^3 on Study Day 0. Dosing commenced the following day and all animals were dosed intravenously with ADC Example 3, sacituzumab govitecan or unconjugated sacituzumab. The study was terminated on the Study Day 60.

[3] = 2.5 mg/kg IV QW × 2 weeks (Group 5 also got ADC Example 3 5 mg/kg on Day 27)
[4] = 5 mg/kg IV QW × 2 weeks (Group 4 also got ADC Example 3 5 mg/kg on Day 27)

Cc1c(CCOc2cc(F)ccc2-c2ccc3ncc(CN(C)C)n3c2)c(C(O)C(C)(C)C)nn1C (stereo not shown) [Example 11, 1-(4-(2-(2-(3-((dimethylamino)methyl)imidazo[1,2-a]pyridin-6-yl)-5-fluorophenoxy)ethyl)-1,5-dimethyl-1H-pyrazol-3-yl)-2,2-dimethylpropan-1-ol]
Caco-2 A-B (Caco-2 cells): 15.9 ×10⁻⁶ cm/s | Papp B→A at 2.5 h, 2 μM [1]: 78 ×10⁻⁶ cm/s | IC50 [2]: 0.9 nM

CNCc1cnc2ccc(-c3ccc(F)cc3OCCc3c(C(C)(C)O)nn(C)c3C)cn12 [Example 18, 2-(4-(2-(5-fluoro-2-(3-((methylamino)methyl)imidazo[1,2-a]pyridin-6-yl)phenoxy)ethyl)-1,5-dimethyl-1H-pyrazol-3-yl)propan-2-ol]
Caco-2 A-B (Caco-2 cells): 0.3 ×10⁻⁶ cm/s | Papp B→A at 2.5 h, 2 μM [1]: 21.1 ×10⁻⁶ cm/s | IC50 [2]: 5.3 nM

ifinatamab
LNCaP tumour volume compared to the vehicle control (LNCaP tumour cells; 5 mg/kg): no significant effect | Day 28 tumour volume (mm^3, mean ± SEM) (LNCaP tumour cells; 5 mg/kg): 551.4 ± 73.1 mm^3 | Tumour growth inhibition (TGI, %) (LNCaP tumour cells; 5 mg/kg): 30.6% | LNCaP tumour volume compared to the vehicle control (LNCaP tumour cells; 10 mg/kg): no significant effect | Day 28 tumour volume (mm^3, mean ± SEM) (LNCaP tumour cells; 10 mg/kg): 666.56 ± 103.2 mm^3 | Tumour growth inhibition (TGI, %) (LNCaP tumour cells; 10 mg/kg): 13.0% | ΔTGI (Study Day 17) (VcaP tumour cells; 2.5 mg/kg IV QW × 2 weeks): 8.47% | ΔTGI (Study Day 17) (VcaP tumour cells; 5 mg/kg IV QW × 2 weeks): 12.44% | tumour volumes compared to vehicle alone (Group 1) (VcaP tumour cells; all concentrations tested (ADC Example 4: 2.5, 5, 10 mg/kg; unconjugated ifinatamab: 5 and 2.5 mg/kg)): no significant difference

sacituzumab
tumour volume compared to vehicle alone (Group 1) (JIMT-1 tumour cells; 2.5 mg/kg (Group 3), p=0.0586): no significant difference | ΔTGI (Study Day 28) (JIMT-1 tumour cells; [3]): 12.11% | tumour volume compared to vehicle alone (Group 1) (JIMT-1 tumour cells; 5 mg/kg (Group 2), p=0.0028): significant decrease | ΔTGI (Study Day 28) (JIMT-1 tumour cells; [4]): 14.44% | tumour volume, 5 mg/kg (Group 2) versus 2.5 mg/kg (Group 3) (JIMT-1 tumour cells; p=0.9837): no significant difference

sacituzumab govitecan
tumour volume compared to Groups 2 and 3 (unconjugated sacituzumab) (JIMT-1 tumour cells; 2.5 mg/kg (Group 5)): no significant difference | ΔTGI (Study Day 28) (JIMT-1 tumour cells; [3]): 13.13% | tumour volume compared to unconjugated sacituzumab Group 2 (5 mg/kg) and Group 3 (2.5 mg/kg) (JIMT-1 tumour cells; 5 mg/kg (Group 4)): significant decrease | ΔTGI (Study Day 28) (JIMT-1 tumour cells; [4]): 23.39% | tumour volumes compared to vehicle alone (Group 1) (JIMT-1 tumour cells; all concentrations tested (ADC Example 3: 2.5, 5, 10 mg/kg; sacituzumab govitecan: 5 and 2.5 mg/kg)): significant decrease

B1: ifinatamab-DXd: ifinatamab-deruxtecan, comparator ADC in prostate xenograft models (conjugate, chains of the INN, looked up)
VH: QVQLVQSGAEVKKPGSSVKVSCKASGYTFTNYVMHWVRQAPGQGLEWMGYINPYNDDVKYNEKFKGRVTITADESTSTAYMELSSLRSEDTAVYYCARWGYYGSPLYYFDYWGQGTLVTVSS
VL: EIVLTQSPATLSLSPGERATLSCRASSRLIYMHWYQQKPGQAPRPLIYATSNLASGIPARFSGSGSGTDFTLTISSLEPEDFAVYYCQQWNSNPPTFGQGTKVEIK
modifications: deruxtecan payload
notes: ifinatamab-deruxtecan, comparator ADC in prostate xenograft models
LNCaP tumour volume compared to the vehicle control (LNCaP tumour cells; 5 mg/kg): slowed the growth of LNCaP tumours to a lesser extent | Day 28 tumour volume (mm^3, mean ± SEM) (LNCaP tumour cells; 5 mg/kg): 364.6 ± 51.7 mm^3 | Tumour growth inhibition (TGI, %) (LNCaP tumour cells; 5 mg/kg): 58.8% | LNCaP tumour volume compared to the vehicle control (LNCaP tumour cells; 10 mg/kg): significantly reduced the mean volume | Day 28 tumour volume (mm^3, mean ± SEM) (LNCaP tumour cells; 10 mg/kg): 259.5 ± 50.3 mm^3 | Tumour growth inhibition (TGI, %) (LNCaP tumour cells; 10 mg/kg): 75.0% | tumour volume compared to Groups 2, 3 and 4 (VcaP tumour cells; 2.5 mg/kg (Group 5)): no significant difference | tumour volume compared to vehicle alone (Group 1) (VcaP tumour cells; 2.5 mg/kg (Group 5)): no significant difference | ΔTGI (Study Day 17) (VcaP tumour cells; 2.5 mg/kg IV QW × 2 weeks): 5.24% | tumour volume compared to unconjugated ifinatamab 5 mg/kg and 2.5 mg/kg (VcaP tumour cells; 5 mg/kg (Group 4)): significantly higher tumour volume | tumour volume compared to vehicle alone (Group 1) (VcaP tumour cells; 5 mg/kg (Group 4)): significantly higher tumour volume | ΔTGI (Study Day 17) (VcaP tumour cells; 5 mg/kg IV QW × 2 weeks): 2.86%

— patent US12599676B2, “Cytotoxic imidazo[1,2-A]pyridine compounds and their use in therapy” (MyricX Pharma Limited, priority 2022, dated 2026)
